Data as given in publication PMC4741576 (Oncotarget, 2015).

Columns and labels:
[1] = tested on: infant MLL-R ALL primary samples; experiment: xenograft of infant MLL-R ALL, leukemic burden; format: in vivo, human blasts in NSG mice
Source text: Therefore, we transplanted primary samples from infants with MLL-R ALL. […] To make our xenograft model even more aggressive, we transplanted cells that had already been passaged once through NOD/SCID/γc^null (NSG) mice in order to select for leukemia-initiating cells from the cryopreserved primary samples. We performed this experiment using 4 different infant MLL-R ALL primary samples (Figure 6A).
Mice were sacrificed at the start of week 4, or 4 days after the last treatment. […] Overall leukemic burden was quantified by averaging the percentage of blasts (human CD45+ and CD19+) detected in the bone marrow, spleen, and peripheral blood. Quantification of leukemic blasts was performed in duplicate.
Cryopreserved primary ALL cells were thawed, counted (TC10 Automated Cell Counter, BioRad, Hercules, CA), and resuspended in cold PBS. Adult NSG mice (Jackson Laboratories, Bar Harbor, ME) were sublethally irradiated (200 centiGray) 4 hours prior to the transplantation of 1 × 10^6 viable cells via tail vein injection. Mice were started on Uniprim medicated feed (Harlan Laboratories, Frederick, MD) ≥ 24 hours prior to transplantation in order to decrease opportunistic infections. Peripheral blood was collected via cheek venipuncture 4 to 6 weeks post-transplant and analyzed by FACS after staining with anti-human CD19-FITC and anti-human CD45-PE (BD Pharmingen). Leukemic blasts were defined as cells that co-expressed human CD45 and human CD19. Mice were sacrificed 2 to 4 weeks post-engraftment and leukemic cells were harvested from the spleen and bone marrow.
(§1) Leukemic blasts (1 × 10^6 per mouse) were then secondarily transplanted into sublethally irradiated NSG mice for treatment experiments. […] After sacrifice, cells were isolated from bone marrow, spleen, and peripheral blood; counted; and stained with anti-human FACS antibodies (CD19- FITC, CD45-PE/APC, 12G5 CXCR4-APC, 1D9 CXCR4-PE, CXCR7-PerCP, and/or CD49d-PE-Cy5).

CXCR4 = settings: vs. control
Source text: as §1

CD49d = CD49d surface expression in leukemic blasts from xenografted mice; format: in vivo, human; settings: bone marrow, spleen and peripheral blood blasts, compared to control; differences not statistically significant
Source text: as §1

[2] = overall health of xenografted mice; settings: 3 consecutive days for 2 weeks; POL5551 5 mg/kg s.c., cytarabine 200 mg/kg i.p.
Source text: (§2) CXCR4 antagonism has been advanced clinically in acute leukemia. Trials of plerixafor as a chemosensitizing agent have been completed in adults with relapsed/refractory and newly-diagnosed AML, [33] and children with relapsed/refractory acute leukemias. One concern about CXCR4 antagonism is that mobilized hematopoietic stem cells will become more susceptible to chemotherapy and lead to delayed blood count recovery.
as §1

surface CXCR4 [3] = molecular target: T1, surface CXCR4 (Homo sapiens, UniProt P61073); experiment: 12G5 anti-CXCR4 antibody binding (FACS), ALL cell lines
T1 construct: endogenous in cells; host or cells: pediatric ALL cell lines (pre-B: Nalm-6, HB-1119 and others; T cell: Jurkat, CCRF-CEM-1301 and others)
T1 sequence (P61073 whole entry): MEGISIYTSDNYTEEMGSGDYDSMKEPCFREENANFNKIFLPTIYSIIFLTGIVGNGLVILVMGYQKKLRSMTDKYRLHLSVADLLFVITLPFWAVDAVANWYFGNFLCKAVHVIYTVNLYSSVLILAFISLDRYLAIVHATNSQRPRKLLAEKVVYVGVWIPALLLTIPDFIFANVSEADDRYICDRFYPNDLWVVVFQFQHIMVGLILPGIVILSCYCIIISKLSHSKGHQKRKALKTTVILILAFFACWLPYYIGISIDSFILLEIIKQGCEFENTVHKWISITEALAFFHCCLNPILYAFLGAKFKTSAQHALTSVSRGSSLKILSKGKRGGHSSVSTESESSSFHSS
Method: We then harvested cells and measured binding of the 12G5 anti-CXCR4 antibody, which attaches to the SDF-1α binding site of CXCR4, by FACS as a marker for surface CXCR4 expression.
12G5 anti-CXCR4 antibody binding was measured by FACS and MFI were normalized to control at each time point.
Conversely, 1D9 antibody binding is a measure of total surface CXCR4. […] At multiple time points, we measured binding to surface CXCR4 by flow cytometry using 3 anti-CXCR4 antibodies: 12G5, 1D9, and 2B11.
Cells were harvested at multiple time points, washed with ice-cold wash buffer (PBS with 0.5% bovine serum albumin, Sigma-Aldrich), stained with antibodies at manufacturer-recommended concentrations (12G5 anti-human CD184 [CXCR4]-APC, eBioscience, San Diego, CA; 12G5 anti-human CD184-PE-Cy5, BD Pharmingen, San Diego, CA; 1D9 anti-human CD184-PE, BD Pharmingen; 2B11 anti-mouse CD184-APC, eBioscience; anti-human CXCR7- PerCP, R&D Systems, Minneapolis, MN), washed, fixed with 1% paraformaldehyde (VWR, Radnor, PA), and stored at 4°C in the dark until analysis on a FACSCalibur (BD Biosciences, San Jose, CA). A live gate was drawn using FlowJo (TreeStar, Ashland, OR) according to forward/side scatter properties and used to calculate the MFI. MFI were normalized to the isotype control (IC) MFI at each time point and then normalized to the MFI:IC ratio of control-treated (0 nM) samples.

[4] = tested on: pediatric ALL and acute myeloid leukemia (AML); settings: cited from earlier work
Source text: ALL is the most common pediatric malignancy. […] However, children and young adults with high-risk and relapsed/refractory ALL continue to have suboptimal outcomes. […] Specifically, interaction between the cell surface receptor CXCR4 ...

CXCR7 = settings: ALL; cited from earlier work
Source text: (§3) CXCR7 is a second receptor for SDF-1α, [24, 25] while VLA-4 is an integrin, [26] and both are important in the interaction of leukemia cells with the bone marrow stromal microenvironment.

acute leukemias [5] = settings: several preclinical studies; cited from earlier work
Source text: Efforts to improve outcomes in pediatric ALL have largely been focused on factors intrinsic to the leukemic blast, such as genetic mutations or alterations in gene expression. However, it is likely that survival signals from the bone marrow microenvironment also contribute to treatment failure and relapse. As such, many groups have studied CXCR4 antagonism as a means to improve outcomes in acute leukemias. […] Our paper is ...

acute leukemias [6] = settings: cited from earlier work
Source text: as §2, with “recovery. […] With regards to ...” for “recovery.”

surface CXCR4 [7] = settings: leukemic blasts; cited from earlier work
surface CXCR4 [8] = settings: leukemic blasts; cited from earlier work; remark: listed apart in the source
ERK1/2 = experiment: SDF-1α-induced phosphorylation of ERK1/2 (PhosphoFACS); format: cell-based, human; settings: control-treated cells, SDF-1α 75 ng/mL for 15 minutes
Source text: as §3

## Nc1ccn([C@@H]2O[C@H](CO)[C@@H](O)[C@@H]2O)c(=O)n1 [cytarabine]
[1]; 3 consecutive days for 2 weeks, vs. vehicle control
  overall leukemic burden compared to vehicle control: significantly decreased total leukemic burden compared to vehicle control
[1]; average of bone marrow, spleen, peripheral blood, 4 primary samples pooled, n = 5 mice/cohort, POL5551 5 mg/kg s.c., cytarabine 200 mg/kg i.p., 3 consecutive days for 2 weeks, vehicle control 56.2%
  overall leukemic burden: 36.7%
[1]; bone marrow, cytarabine 200 mg/kg i.p., vs. vehicle control
  leukemic burden in bone marrow compared to vehicle control: did not lead to a significant decrease in leukemic burden compared to vehicle control
[1]; bone marrow, POL5551 5 mg/kg s.c., cytarabine 200 mg/kg i.p., 3 consecutive days for 2 weeks
  leukemic burden, bone marrow: 49.5%
[1]; peripheral blood, POL5551 5 mg/kg s.c., cytarabine 200 mg/kg i.p., 3 consecutive days for 2 weeks
  leukemic burden, blood: 29.6%
[1]; spleen, POL5551 5 mg/kg s.c., cytarabine 200 mg/kg i.p., 3 consecutive days for 2 weeks
  leukemic burden, spleen: 30.8%
CXCR4
  12G5 antibody binding in blasts from bone marrow and peripheral blood: moderate but non-significant decrease in 12G5 antibody binding
CD49d
  CD49d mean fluorescence index (MFI): increased
[2]
  appearance of mice at sacrifice: thin and hunched at sacrifice

## c1cc(CN2CCCNCCNCCCNCC2)ccc1CN1CCCNCCNCCCNCC1 [plerixafor]
Surface CXCR4 [3]; ALL cell lines, 48-hour time course
  12G5 antibody binding, potency relative to POL5551 / plerixafor: several-fold higher concentrations of plerixafor were needed to achieve similar levels of reduction of 12G5 antibody binding
Surface CXCR4 [3]; NALM-6, read-out: maximum inhibition of 12G5 antibody binding
  inhibition at 0.04 µM: ~20%
[4]
  stromal protection and chemotherapy resistance: could reverse stromal protection and chemotherapy resistance
CXCR7
  surface expression of CXCR7: increase in surface expression of CXCR7
Acute leukemias [5]
  in vivo sensitivity to anti-leukemic therapies: enhances in vivo sensitivity to anti-leukemic therapies
Acute leukemias [6]; phase 1/2 trials of plerixafor
  prolonged count recovery: none of them reported prolonged count recovery
Acute leukemias [6]; phase 1/2 trials, adults with AML, children with relapsed/refractory acute leukemias
  tolerability and efficacy as a chemosensitizing agent: showed tolerability and efficacy of plerixafor as a chemosensitizing agent
Acute leukemias [6]; plerixafor trials
  development of extramedullary disease after treatment: none of the aforementioned trials reported the development of extramedullary disease after treatment
Surface CXCR4 [7]
  12G5 antibody binding to surface CXCR4: decrease in 12G5 antibody binding
Surface CXCR4 [8]
  1D9 antibody binding to surface CXCR4: increase in 1D9 antibody binding

## SDF-1α
ERK1/2
  ERK1/2 phosphorylation, effect of SDF-1α: increase in phosphorylation of ERK1/2
